Columns and labels:
Plasma = assay: Anticoagulant activity in human plasma assessed as drug level causing 1.5 times prolongation of prothrombin time; assay type: functional
Coagulation factor X [1] = target: T1, Coagulation factor X (Homo sapiens, UniProt P00742); assay: Inhibition of human F10a by fluorescence assay
[2] = Plasma clearance in Sprague-Dawley rat; assay type: ADME, organism-based
Albumin = Albumin (Homo sapiens, UniProt P02768); assay: Binding affinity to human serum albumin; assay type: ADME; conditions: isolated protein
Sequence of Albumin (P02768 whole entry): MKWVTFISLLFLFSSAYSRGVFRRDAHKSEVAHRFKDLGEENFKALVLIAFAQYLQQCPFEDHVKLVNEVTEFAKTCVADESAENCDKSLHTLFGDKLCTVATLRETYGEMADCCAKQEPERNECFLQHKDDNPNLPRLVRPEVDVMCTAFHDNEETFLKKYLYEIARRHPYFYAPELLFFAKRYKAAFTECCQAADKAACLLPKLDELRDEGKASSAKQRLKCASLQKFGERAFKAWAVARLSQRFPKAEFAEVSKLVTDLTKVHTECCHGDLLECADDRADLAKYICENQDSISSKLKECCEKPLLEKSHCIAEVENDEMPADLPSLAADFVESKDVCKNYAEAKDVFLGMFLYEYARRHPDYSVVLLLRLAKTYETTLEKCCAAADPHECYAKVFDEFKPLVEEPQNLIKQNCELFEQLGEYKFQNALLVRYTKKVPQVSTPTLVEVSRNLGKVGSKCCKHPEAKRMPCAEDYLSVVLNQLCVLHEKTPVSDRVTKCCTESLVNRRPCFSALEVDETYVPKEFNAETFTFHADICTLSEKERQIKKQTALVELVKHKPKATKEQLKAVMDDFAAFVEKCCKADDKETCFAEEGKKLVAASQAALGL

[3] = Volume of distribution at steady state in Sprague-Dawley rat; assay type: ADME, organism-based; conditions: in vivo, read-out: Vdss
[4] = Half life in Sprague-Dawley rat; assay type: ADME, organism-based; conditions: in vivo
[5] = Oral bioavailability in Sprague-Dawley rat; assay type: ADME, organism-based; conditions: in vivo
Coagulation factor X [6] = target: T1, Coagulation factor X; assay: Inhibition of human F10a by chromogenic assay

T1 sequence (P00742 41-179 limits assumed): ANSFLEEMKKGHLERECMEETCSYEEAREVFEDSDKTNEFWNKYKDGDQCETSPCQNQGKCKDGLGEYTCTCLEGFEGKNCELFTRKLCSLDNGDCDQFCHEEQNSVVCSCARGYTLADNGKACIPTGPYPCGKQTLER
T1 sequence (P00742 235-488 limits assumed): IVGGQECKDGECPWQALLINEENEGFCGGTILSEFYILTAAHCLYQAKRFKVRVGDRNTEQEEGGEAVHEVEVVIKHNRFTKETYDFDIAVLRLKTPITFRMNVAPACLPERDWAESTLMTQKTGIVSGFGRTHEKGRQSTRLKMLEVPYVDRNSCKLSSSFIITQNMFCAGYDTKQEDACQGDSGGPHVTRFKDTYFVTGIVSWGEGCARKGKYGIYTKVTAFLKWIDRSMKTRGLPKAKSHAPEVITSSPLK

SMILES	Activity (Plasma)	Ki (Coagulation factor X [1])	further results
O=C1C(NS(=O)(=O)c2ccc3cc(Cl)ccc3c2)CCN1c1ccc(-n2ccnc2)cc1F (stereo not given)	>100 µM	4.4 nM	
CNS(=O)(=O)c1ccccc1-c1ccc(N2CCC(NS(=O)(=O)/C=C/c3ccc(Cl)s3)C2=O)nc1 (stereo not given)	25 µM	< 0.3 nM	
CN(C)S(=O)(=O)c1ccccc1-c1ccc(N2CCC(NS(=O)(=O)/C=C/c3ccc(Cl)s3)C2=O)nc1 (stereo not given)	65.1 µM	0.4 nM	
CS(=O)(=O)c1ccccc1-c1ccc(N2CCC(NS(=O)(=O)c3ccc4cc(Cl)ccc4c3)C2=O)c(F)c1 (stereo not given)			clearance [2]: 20 mL/min/kg; Activity (Albumin): 98.8%; Vd [3]: 1.1 L/kg; half-life [4]: 54 min; bioavailability [5]: 10%
O=C1C(NS(=O)(=O)c2ccc3cc(Cl)ccc3c2)CCN1c1ccc(-c2ccccc2)cn1 (stereo not given)	>100 µM	80 nM	
N#Cc1ncccc1-c1ccc(N2CCC(NS(=O)(=O)c3ccc4cc(Cl)ccc4c3)C2=O)c(F)c1 (stereo not given)	64.3 µM	0.7 nM	
CS(=O)(=O)Nc1ccccc1-c1ccc(N2CCC(NS(=O)(=O)/C=C/c3ccc(Cl)s3)C2=O)nc1 (stereo not given)	58.4 µM		Activity (Albumin): 98.2%; Ki (Coagulation factor X [6]): 14 nM
CS(=O)(=O)c1ccccc1-c1ccc(N2CCC(NS(=O)(=O)/C=C/c3cc4ccc(Cl)cc4s3)C2=O)c(F)c1 (stereo not given)	28.7 µM	0.1 nM	
O=C1C(NS(=O)(=O)c2ccc3cc(Cl)ccc3c2)CCN1c1ccc(-c2ccccc2)cc1F (stereo not given)	>100 µM	215 nM	
CN(C)C(=O)c1ccccc1-c1ccc(N2CCC(NS(=O)(=O)/C=C/c3ccc(Cl)s3)C2=O)nc1 (stereo not given)	78.6 µM	11.8 nM	
CS(=O)(=O)c1ccccc1-c1ccc(N2CCC(NS(=O)(=O)c3cc4cc(Cl)ccc4o3)C2=O)c(F)c1 (stereo not given)	>100 µM	6.2 nM	
CS(=O)(=O)c1ccccc1-c1ccc(N2CCC(NS(=O)(=O)/C=C/c3ccc(Cl)s3)C2=O)c(F)c1 (stereo not given)			Activity (Albumin): 97.6%
O=C1C(NS(=O)(=O)c2ccc3cc(Cl)ccc3c2)CCN1c1ccc(-c2cccnc2)cc1F (stereo not given)	>100 µM	6.3 nM	
Cn1ccnc1-c1ccc(N2CCC(NS(=O)(=O)c3ccc4cc(Cl)ccc4c3)C2=O)c(F)c1 (stereo not given)	54.5 µM	1.1 nM	
CS(=O)(=O)c1ccccc1-c1ccc(N2CCC(NS(=O)(=O)/C=C/c3ccc(Cl)cc3)C2=O)c(F)c1 (stereo not given)	30 µM	< 0.4 nM	clearance [2]: 9.2 mL/min/kg; Vd [3]: 0.5 L/kg; half-life [4]: 48 min; bioavailability [5]: 41%
O=C1C(NS(=O)(=O)c2ccc3cc(Cl)ccc3c2)CCN1c1ccc(-c2ccncc2)cc1F (stereo not given)	92.9 µM	8.9 nM	
CN(c1ccccc1-c1ccc(N2CCC(NS(=O)(=O)/C=C/c3ccc(Cl)s3)C2=O)nc1)S(C)(=O)=O (stereo not given)	>100 µM	9.1 nM	
Cn1cnc(-c2ccc(N3CCC(NS(=O)(=O)c4ccc5cc(Cl)ccc5c4)C3=O)c(F)c2)c1 (stereo not given)	>100 µM	15.5 nM	
CC(C)Oc1ccccc1-c1ccc(N2CCC(NS(=O)(=O)/C=C/c3ccc(Cl)s3)C2=O)nc1 (stereo not given)	>100 µM	180 nM	
O=C1C(NS(=O)(=O)/C=C/c2ccc(Cl)s2)CCN1c1ccc(-c2ccccc2C(F)(F)F)cn1 (stereo not given)	>100 µM	6 nM	
O=C1C(NS(=O)(=O)c2ccc3cc(Cl)ccc3c2)CCN1c1ccc(-n2cccn2)cc1F (stereo not given)	>100 µM	2.7 nM	
NS(=O)(=O)c1ccccc1-c1ccc(N2CCC(NS(=O)(=O)/C=C/c3ccc(Cl)s3)C2=O)nc1 (stereo not given)			Activity (Albumin): 98%
CS(=O)(=O)c1ccccc1-c1ccc(N2CCC(NS(=O)(=O)/C=C/c3ccc(Cl)s3)C2=O)nc1 (stereo not given)			clearance [2]: 20 mL/min/kg; Activity (Albumin): 97.6%; Vd [3]: 0.7 L/kg; half-life [4]: 36 min; bioavailability [5]: 29%
CS(=O)(=O)c1ccccc1-c1ccc(N2CCC(NS(=O)(=O)c3cc4ccc(Cl)cc4o3)C2=O)c(F)c1 (stereo not given)	>100 µM	1.1 nM	Activity (Albumin): 99.6%
O=C1C(NS(=O)(=O)c2ccc3cc(Cl)ccc3c2)CCN1c1ccc(-c2ccoc2)cc1F (stereo not given)	>100 µM	74.6 nM	
CC(C)(C)c1ccccc1-c1ccc(N2CCC(NS(=O)(=O)/C=C/c3ccc(Cl)s3)C2=O)nc1 (stereo not given)			Ki (Coagulation factor X [6]): 2330 nM
N#Cc1ccccc1-c1ccc(N2CCC(NS(=O)(=O)/C=C/c3ccc(Cl)s3)C2=O)nc1 (stereo not given)	73.7 µM	1.8 nM	
CS(=O)(=O)c1ccccc1-c1ccc(N2CCC(NS(=O)(=O)c3cc4nc(Cl)ccc4s3)C2=O)c(F)c1 (stereo not given)	> 100 µM	2 nM	

— ChEMBL document CHEMBL1140797, “Structure and property based design of factor Xa inhibitors: pyrrolidin-2-ones with biaryl P4 motifs” (Bioorg Med Chem Lett, 2008)
